Measurements as given in ChEMBL document CHEMBL1201862, “PubChem BioAssay data set” (2004).
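Values below derive from 48-hour exposures of cells grown in 96-well plates, with endpoints linearly interpolated between the two concentrations bracketing the appropriate inhibition level. GI50 marks 50% less growth.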 The source made the active and inactive calls. No stated cut-off is given here; in the data, active = GI50 up to about 1.1 µM and inactive = higher.

Key:
Experiment in all cases: DTP human tumour cell line panel, 48 h
[1] = tested on: NCI/ADR-RES
[2] = tested on: A549
[3] = tested on: UO-31
[4] = tested on: HOP-92
[5] = tested on: NCI-H522
[6] = tested on: CCRF-CEM
[7] = tested on: CAKI-1
[8] = tested on: K562
[9] = tested on: NCI-H460
[10] = tested on: KM12
[11] = tested on: M14
[12] = tested on: MOLT-4
[13] = tested on: SF-539
[14] = tested on: SK-OV-3
[15] = tested on: EKVX
[16] = tested on: HT-29
[17] = tested on: U-251
[18] = tested on: UACC-257
[19] = tested on: Malme-3M
[20] = tested on: RXF 393
[21] = tested on: DU-145
[22] = tested on: T47D
[23] = tested on: 786-0
[24] = tested on: SF-295
[25] = tested on: LOX IMVI
[26] = tested on: OVCAR-3
[27] = tested on: NCI-H23
[28] = tested on: MDA-MB-435
[29] = tested on: UACC-62
[30] = tested on: IGROV-1
[31] = tested on: BT-549
[32] = tested on: SK-MEL-5
[33] = tested on: PC-3
[34] = tested on: SK-MEL-2
[35] = tested on: ACHN
[36] = tested on: SW-620
[37] = tested on: RPMI-8226
[38] = tested on: HCC 2998
[39] = tested on: SF-268
[40] = tested on: SNB-75
[41] = tested on: TK-10
[42] = tested on: Hs-578T
[43] = tested on: COLO 205
[44] = tested on: MDA-MB-231
[45] = tested on: HOP-62
[46] = tested on: SK-MEL-28
[47] = tested on: SNB-19
[48] = tested on: MCF7
[49] = tested on: HL-60
[50] = tested on: OVCAR-8
[51] = tested on: NCI-H226
[52] = tested on: SN12C
[53] = tested on: OVCAR-5
[54] = tested on: OVCAR-4
[55] = tested on: MDA-N
[56] = tested on: HCT-116
[57] = tested on: SR
[58] = tested on: HCT-15
[59] = tested on: A498

## Cc1cc(C)nc(NS(=O)(=O)c2ccc(NNc3c4ccccc4nc4c(C(=O)Nc5ccc(S(N)(=O)=O)cc5)cccc34)cc2)n1
[1]
  GI50: > 100 µM (inactive)
[2]
  GI50: > 100 µM (inactive)
[3]
  GI50: 45.7 µM (inactive)
[4]
  GI50: 17.4 µM (inactive)
[5]
  GI50: 19.7 µM (inactive)
[6]
  GI50: 20.2 µM (inactive)
[7]
  GI50: 50.1 µM (inactive)
[8]
  GI50: 27.9 µM (inactive)
[9]
  GI50: 37.6 µM (inactive)
[10]
  GI50: 34 µM (inactive)
[11]
  GI50: > 100 µM (inactive)
[12]
  GI50: 17.1 µM (inactive)
[13]
  GI50: 40.7 µM (inactive)
[14]
  GI50: 47.1 µM (inactive)
[15]
  GI50: 45.2 µM (inactive)
[16]
  GI50: 39.7 µM (inactive)
[17]
  GI50: 14.1 µM (inactive)
[18]
  GI50: > 100 µM (inactive)
[19]
  GI50: 43.3 µM (inactive)
[20]
  GI50: 40.1 µM (inactive)
[21]
  GI50: 42.6 µM (inactive)
[22]
  GI50: 4.23 µM (inactive)
[23]
  GI50: 66.5 µM (inactive)
[24]
  GI50: 54 µM (inactive)
[25]
  GI50: 19.2 µM (inactive)
[26]
  GI50: 25.9 µM (inactive)
[27]
  GI50: 21.2 µM (inactive)
[28]
  GI50: 47.2 µM (inactive)
[29]
  GI50: 27.7 µM (inactive)
[30]
  GI50: 34.6 µM (inactive)
[31]
  GI50: 34.8 µM (inactive)
[32]
  GI50: 30.5 µM (inactive)
[33]
  GI50: 18.6 µM (inactive)
[34]
  GI50: 12.8 µM (inactive)
[35]
  GI50: 28.1 µM (inactive)
[36]
  GI50: 45.3 µM (inactive)
[37]
  GI50: 23.3 µM (inactive)
[38]
  GI50: 20.1 µM (inactive)
[39]
  GI50: 29.9 µM (inactive)
[40]
  GI50: 18.6 µM (inactive)
[41]
  GI50: 69.2 µM (inactive)
[42]
  GI50: 64.1 µM (inactive)
[43]
  GI50: > 100 µM (inactive)
[44]
  GI50: 13.3 µM (inactive)
[45]
  GI50: 33.4 µM (inactive)
[46]
  GI50: 25.1 µM (inactive)
[47]
  GI50: 27.8 µM (inactive)
[48]
  GI50: 53.5 µM (inactive)
[49]
  GI50: 34.9 µM (inactive)
[50]
  GI50: 34.4 µM (inactive)
[51]
  GI50: 32 µM (inactive)
[52]
  GI50: 29.9 µM (inactive)
[53]
  GI50: 31.1 µM (inactive)
[54]
  GI50: 49.5 µM (inactive)
[55]
  GI50: 49.5 µM (inactive)
[56]
  GI50: 28.2 µM (inactive)
[57]
  GI50: 12.8 µM (inactive)
[58]
  GI50: > 100 µM

## Cn1c2ccccc2c(=S)c2ccccc21
[1]
  GI50: > 100 µM (inactive)
[2]
  GI50: > 100 µM (inactive)
[3]
  GI50: > 100 µM (inactive)
[4]
  GI50: > 100 µM (inactive)
[5]
  GI50: > 100 µM (inactive)
[6]
  GI50: > 100 µM (inactive)
[7]
  GI50: > 100 µM (inactive)
[8]
  GI50: > 100 µM (inactive)
[9]
  GI50: > 100 µM (inactive)
[10]
  GI50: > 100 µM (inactive)
[11]
  GI50: > 100 µM (inactive)
[12]
  GI50: > 100 µM (inactive)
[13]
  GI50: > 100 µM (inactive)
[14]
  GI50: > 100 µM (inactive)
[15]
  GI50: > 100 µM (inactive)
[16]
  GI50: > 100 µM (inactive)
[17]
  GI50: > 100 µM (inactive)
[18]
  GI50: > 100 µM (inactive)
[20]
  GI50: > 100 µM (inactive)
[21]
  GI50: > 100 µM (inactive)
[22]
  GI50: > 100 µM (inactive)
[23]
  GI50: > 100 µM (inactive)
[24]
  GI50: > 100 µM (inactive)
[25]
  GI50: > 100 µM (inactive)
[26]
  GI50: > 100 µM (inactive)
[27]
  GI50: > 100 µM (inactive)
[28]
  GI50: > 100 µM (inactive)
[29]
  GI50: > 100 µM (inactive)
[30]
  GI50: > 100 µM (inactive)
[31]
  GI50: > 100 µM (inactive)
[32]
  GI50: > 100 µM (inactive)
[33]
  GI50: > 100 µM (inactive)
[34]
  GI50: > 100 µM (inactive)
[35]
  GI50: > 100 µM (inactive)
[36]
  GI50: > 100 µM (inactive)
[37]
  GI50: > 100 µM (inactive)
[38]
  GI50: > 100 µM (inactive)
[39]
  GI50: > 100 µM (inactive)
[40]
  GI50: > 100 µM (inactive)
[41]
  GI50: > 100 µM (inactive)
[42]
  GI50: > 100 µM (inactive)
[43]
  GI50: > 100 µM (inactive)
[44]
  GI50: > 100 µM (inactive)
[45]
  GI50: > 100 µM (inactive)
[46]
  GI50: > 100 µM (inactive)
[47]
  GI50: > 100 µM (inactive)
[48]
  GI50: > 100 µM (inactive)
[50]
  GI50: > 100 µM (inactive)
[59]
  GI50: > 100 µM (inactive)
[51]
  GI50: > 100 µM (inactive)
[52]
  GI50: > 100 µM (inactive)
[53]
  GI50: > 100 µM (inactive)
[55]
  GI50: > 100 µM (inactive)
[56]
  GI50: > 100 µM (inactive)
[57]
  GI50: > 100 µM (inactive)
[58]
  GI50: > 100 µM
